PMC12292521, “Discovery of a Potent Antimicrobial Peptide Through Rational Design: A New Frontier in Pathogen Control” (Biomolecules, 2025)

What was measured:
Enterococcus faecium = assay: Antimicrobial susceptibility by disk diffusion (EUCAST); format: cell-based
Procedure: (§1) The antimicrobial susceptibility of the four ESKAPE bacteria Acinetobacter baumannii, Enterococcus faecium, P. aeruginosa, and S. aureus, made available by the culture collection of IZSM, was evaluated by the disk diffusion method. Antimicrobials used were different and specific per each bacterium under study. […] Thereby, the diameter of the inhibition zones was measured, and bacteria were classified as resistant or sensitive per antibiotic tested in agreement with the European Committee for Antimicrobial Susceptibility Testing (EUCAST, 2025) breakpoints.

[1] = test system: Staphylococcus aureus (MRSA); assay: as above; format: cell-based
Procedure: as §1

SMILES	Susceptibility of the strain, in words (Enterococcus faecium)	Susceptibility of the strain, in words [1]
CC1(C)S[C@@H]2[C@H](NC(=O)[C@H](N)c3ccccc3)C(=O)N2[C@H]1C(=O)O [Ampicillin]	resistant	–
CO[C@@]1(NC(=O)Cc2cccs2)C(=O)N2C(C(=O)O)=C(COC(N)=O)CS[C@@H]21 [Cefoxitin]	–	important resistance was detected
O=C(O)c1cn(C2CC2)c2cc(N3CCNCC3)c(F)cc2c1=O [Ciprofloxacin]	resistant	important resistance was detected
CC[C@H]1OC(=O)[C@H](C)[C@@H](O[C@H]2C[C@@](C)(OC)[C@@H](O)[C@H](C)O2)[C@H](C)[C@@H](O[C@@H]2O[C@H](C)C[C@H](N(C)C)[C@H]2O)[C@](C)(O)C[C@@H](C)C(=O)[C@H](C)[C@@H](O)[C@]1(C)O [Erythromycin]	–	important resistance was detected
C[C@H]1COc2c(N3CCN(C)CC3)c(F)cc3c(=O)c(C(=O)O)cn1c23 [Levofloxacin]	resistant	important resistance was detected
CN[C@H](CC(C)C)C(=O)N[C@H]1C(=O)N[C@@H](CC(N)=O)C(=O)N[C@H]2C(=O)N[C@H]3C(=O)N[C@H](C(=O)N[C@H](C(=O)O)c4cc(O)cc(O)c4-c4cc3ccc4O)[C@H](O)c3ccc(c(Cl)c3)Oc3cc2cc(c3O[C@@H]2O[C@H](CO)[C@@H](O)[C@H](O)[C@H]2O[C@H]2C[C@](C)(N)[C@H](O)[C@H](C)O2)Oc2ccc(cc2Cl)[C@H]1O [Vancomycin]	resistant	–
